What was measured:
[1] = target: PI3Kα (Homo sapiens (Human), UniProt P42336); details: read-out: PI3Kα AlphaScreen ® Ki
[2] = system: phosphorylation of Akt at Serine 473 in U87 MG cells; experiment: cells; details: Homo sapiens, U-87 MG, 2 h, read-out: U87Cell IC50, pAkt (Ser 473), U87 MG cells, two hours with compound

PI3Kα, sequence (P42336 whole entry): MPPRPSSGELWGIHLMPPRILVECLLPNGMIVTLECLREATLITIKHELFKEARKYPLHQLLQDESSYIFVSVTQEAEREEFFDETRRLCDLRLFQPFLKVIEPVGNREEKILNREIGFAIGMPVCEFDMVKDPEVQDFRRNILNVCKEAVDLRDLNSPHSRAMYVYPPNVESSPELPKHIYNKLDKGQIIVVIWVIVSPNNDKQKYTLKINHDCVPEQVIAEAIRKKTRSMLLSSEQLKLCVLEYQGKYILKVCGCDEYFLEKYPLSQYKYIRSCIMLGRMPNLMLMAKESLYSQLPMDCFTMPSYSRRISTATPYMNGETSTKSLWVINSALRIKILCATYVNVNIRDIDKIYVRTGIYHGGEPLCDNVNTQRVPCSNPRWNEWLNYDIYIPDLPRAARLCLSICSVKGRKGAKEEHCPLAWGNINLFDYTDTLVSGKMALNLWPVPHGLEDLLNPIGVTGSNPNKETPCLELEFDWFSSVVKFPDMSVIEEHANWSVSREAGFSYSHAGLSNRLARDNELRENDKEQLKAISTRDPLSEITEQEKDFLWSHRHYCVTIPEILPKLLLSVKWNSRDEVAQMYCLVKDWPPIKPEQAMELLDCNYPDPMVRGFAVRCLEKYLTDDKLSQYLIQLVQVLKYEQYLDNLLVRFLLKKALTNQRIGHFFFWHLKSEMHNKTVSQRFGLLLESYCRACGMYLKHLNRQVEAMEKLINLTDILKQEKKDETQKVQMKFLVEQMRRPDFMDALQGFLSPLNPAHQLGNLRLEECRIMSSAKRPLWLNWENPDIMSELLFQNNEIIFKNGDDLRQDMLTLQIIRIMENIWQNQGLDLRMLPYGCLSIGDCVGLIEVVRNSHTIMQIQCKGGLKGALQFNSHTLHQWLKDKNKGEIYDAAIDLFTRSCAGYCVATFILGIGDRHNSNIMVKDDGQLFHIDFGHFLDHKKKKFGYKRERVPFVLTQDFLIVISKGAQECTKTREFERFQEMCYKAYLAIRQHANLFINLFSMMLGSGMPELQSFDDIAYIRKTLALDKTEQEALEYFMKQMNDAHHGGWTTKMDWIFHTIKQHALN
PI3Kα, sequence (P27986 whole entry partner): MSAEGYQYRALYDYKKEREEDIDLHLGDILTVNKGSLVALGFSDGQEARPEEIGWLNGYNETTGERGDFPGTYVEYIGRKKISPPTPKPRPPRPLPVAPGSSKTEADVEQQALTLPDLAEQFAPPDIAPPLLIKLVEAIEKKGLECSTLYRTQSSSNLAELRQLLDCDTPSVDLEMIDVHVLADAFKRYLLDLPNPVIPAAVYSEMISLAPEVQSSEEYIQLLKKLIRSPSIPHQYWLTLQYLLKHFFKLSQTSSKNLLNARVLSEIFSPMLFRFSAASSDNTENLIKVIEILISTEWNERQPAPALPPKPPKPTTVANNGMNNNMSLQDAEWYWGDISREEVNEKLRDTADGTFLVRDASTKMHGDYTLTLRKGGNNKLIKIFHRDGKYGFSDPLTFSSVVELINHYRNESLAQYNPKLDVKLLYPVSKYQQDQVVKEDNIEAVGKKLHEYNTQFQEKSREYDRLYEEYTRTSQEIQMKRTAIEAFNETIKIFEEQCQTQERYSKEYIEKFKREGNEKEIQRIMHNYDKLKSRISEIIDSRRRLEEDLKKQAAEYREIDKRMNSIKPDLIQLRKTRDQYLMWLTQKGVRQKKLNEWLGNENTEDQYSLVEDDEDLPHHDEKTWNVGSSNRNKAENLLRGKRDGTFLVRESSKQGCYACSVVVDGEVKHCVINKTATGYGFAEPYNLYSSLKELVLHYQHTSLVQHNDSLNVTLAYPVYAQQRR

Ki [1] [nM] | IC50 [2] [nM] | SMILES
7 | 8 | COc1ncc(Nc2ncc(CN3CCN4C(CCS4(=O)=O)C3)cc2-c2nc(C)nc(N)n2)cc1F (stereo not shown) [Example 383, 4-(5-((1,1-Dioxidohexahydro-5H-Isothiazolo[2,3-A]Pyrazin-5-yl)Methyl)-2-((5-Fluoro-6-Methoxy-3-Pyridinyl)Amino)-3-Pyridinyl)-6-Methyl-1,3,5-Triazin-2-Amine]
36 | 73 | Cc1nc(N)nc(-c2cc(CN3CCN(S(C)(=O)=O)CC3)cnc2Nc2cnc(O)c(F)c2)n1 [Example 161, 5-(3-(4-Amino-6-Methyl-1,3,5-Triazin-2-yl)-5-((4-(Methylsulfonyl)Piperazin-1-yl)Methyl)Pyridin-2-Ylamino)-3-Fluoropyridin-2-ol]
802 | – | Cc1nc(N)c(F)c(-c2cccnc2Nc2cccc3[nH]ncc23)n1 [Example 29, N-(3-(6-Amino-5-Fluoro-2-Methylpyrimidin-4-yl)Pyridin-2-yl)-1H-Indazol-4-Amine]
807 | > 10000 | CCS(=O)(=O)c1cnc(Nc2cnc(OC)c(F)c2)c(-c2nc(C)nc(N)n2)c1 [Example 303, 4-(5-(ethylsulfonyl)-2-(5-fluoro-6-methoxypyridin-3-ylamino)pyridin-3-yl)-6-methyl-1,3,5-triazin-2-amine]
446 | 404 | COc1ccc(Nc2ncc(CN3CC(N)C3)cc2-c2nc(C)nc(N)n2)cn1 [Example 231, 4-(5-((3-Aminoazetidin-1-yl)Methyl)-2-(6-Methoxypyridin-3-Ylamino)Pyridin-3-yl)-6-Methyl-1,3,5-Triazin-2-Amine]
20 | 14 | COc1ncc(Nc2ncc(CN3CCOCC3)cc2-c2nc(C)nc(N)n2)cc1F [Example 130, 4-(2-(5-fluoro-6-methoxypyridin-3-ylamino)-5-(morpholinomethyl)pyridin-3-yl)-6-methyl-1,3,5-triazin-2-amine]
61 | 45 | COc1ncc(Nc2ncc(C(C)NC(C)C)cc2-c2nc(C)nc(N)n2)cc1F (stereo not shown) [Example 299, 4-(2-(5-Fluoro-6-Methoxypyridin-3-Ylamino)-5-(1-(Isopropylamino)Ethyl)Pyridin-3-yl)-6-Methyl-1,3,5-Triazin-2-Amine]
63 | > 10000 | COc1ncc(Nc2nc(-c3ccncc3)ccc2-c2nc(C)nc(N)n2)cc1F [Example 175, 5-(4-Amino-6-Methyl-1,3,5-Triazin-2-yl)-N-(5-Fluoro-6-Methoxypyridin-3-yl)-2,4′-Bipyridin-6-Amine]
41 | 58 | COc1ccc(Nc2ncc(CN3CCn4ncnc4C3)cc2-c2nc(C)nc(N)n2)cn1 [Example 233, 4-(5-((5,6-Dihydro-[1,2,4]Triazolo[1,5-A]Pyrazin-7(8H)-yl)Methyl)-2-(6-Methoxypyridin-3-Ylamino)Pyridin-3-yl)-6-Methyl-1,3,5-Triazin-2-Amine]
177 | 902 | COc1ccc(Nc2ncccc2-c2nc(C)nc(N)n2)cc1F [Example 166, 4-(2-(3-Fluoro-4-Methoxyphenylamino)Pyridin-3-yl)-6-Methyl-1,3,5-Triazin-2-Amine]
13 | 18 | COc1ncc(Nc2ncc(C=O)cc2-c2nc(C)nc(N)n2)cc1F [Example 187, 5-(4-Amino-6-Methyl-1,3,5-Triazin-2-yl)-6-(5-Fluoro-6-Methoxypyridin-3-Ylamino)Nicotinaldehyde]
15 | 7 | Cc1nc(N)nc(-c2cc([C@H](C)N3CCOCC3)cnc2Nc2cnc(Cl)c(NS(=O)(=O)N(C)C)c2)n1 [Example 374, (S)—N-(5-(3-(4-Amino-6-Methyl-1,3,5-Triazin-2-yl)-5-(1-Morpholinoethyl)Pyridin-2-Ylamino)-2-Chloropyridin-3-yl)-N,N-Dimethylaminosulfamide]
155 | 1100 | CC(=O)Nc1ccc(Nc2ncc(Cl)cc2-c2nc(C)nc(N)n2)cc1F [Example 266, N-(4-(3-(4-Amino-6-Methyl-1,3,5-Triazin-2-yl)-5-Chloropyridin-2-Ylamino)-2-Fluorophenyl)Acetamide]
39 | 78 | COc1ccc(Nc2ncc(CN3CC(NS(C)(=O)=O)C3)cc2-c2nc(C)nc(N)n2)cn1 [Example 232, N-(1-((5-(4-Amino-6-Methyl-1,3,5-Triazin-2-yl)-6-(6-Methoxypyridin-3-Ylamino)Pyridin-3-yl)Methyl)Azetidin-3-yl)Methanesulfonamide]
11 | 34 | COc1ccc(Nc2ncc(C(C)(C)N3CCN(S(C)(=O)=O)CC3)cc2-c2nc(C)nc(N)n2)cn1 [Example 279, 4-(2-(6-Methoxypyridin-3-Ylamino)-5-(2-(4-(Methylsulfonyl)Piperazin-1-yl)Propan-2-yl)Pyridin-3-yl)-6-Methyl-1,3,5-Triazin-2-Amine]
426 | > 10000 | Cc1nc(N)nc(-c2cc(Cl)cnc2Nc2cncc(F)c2)n1 [Example 257, 4-(5-Chloro-2-(5-Fluoropyridin-3-Ylamino)Pyridin-3-yl)-6-Methyl-1,3,5-Triazin-2-Amine]
23 | – | Cc1nc(N)nc(-c2cc(C(C)(C)O)cnc2Nc2cncc(F)c2)n1 [Example 352, 2-(5-(4-Amino-6-Methyl-1,3,5-Triazin-2-yl)-6-(5-Fluoropyridin-3-Ylamino)Pyridin-3-yl)Propan-2-ol]

Ki [1] [nM] | IC50 [2] [nM] | SMILES
327 | – | COc1ccc(Nc2nccnc2-c2nc(C)nc(N)n2)cn1 [Example 114, 4-(3-(6-methoxypyridin-3-ylamino)pyrazin-2-yl)-6-methyl-1,3,5-triazin-2-amine]
19 | – | COc1ncc(Nc2ncccc2-c2nc(C)nc(N)n2)cc1F [Example 246, 4-(2-(5-Fluoro-6-Methoxypyridin-3-Ylamino)Pyridin-3-yl)-6-Methyl-1,3,5-Triazin-2-Amine]
58 | – | Cc1nc(N)nc(-c2cc(C(C)(C)O)cnc2Nc2cncc(S(=O)(=O)c3ccccc3)c2)n1 [Example 356, 2-(5-(4-Amino-6-Methyl-1,3,5-Triazin-2-yl)-6-(5-(Phenylsulfonyl)Pyridin-3-Ylamino)Pyridin-3-yl)Propan-2-ol]
2 | – | COc1ncc(Nc2ncc(C(C)CO)cc2-c2nc(C)nc(N)n2)cc1F (stereo not shown) [Example 312, 2-(5-(4-amino-6-methyl-1,3,5-triazin-2-yl)-6-(5-fluoro-6-methoxypyridin-3-ylamino)pyridin-3-yl)propan-1-ol]
15 | – | COc1cncc(Nc2ncc(C(C)(C)O)cc2-c2nc(C)nc(N)n2)c1 [Example 353, 2-(5-(4-Amino-6-Methyl-1,3,5-Triazin-2-yl)-6-(5-Methoxypyridin-3-Ylamino)Pyridin-3-yl)Propan-2-ol]
3140 | – | Nc1cc(-c2cccnc2Nc2cccc3[nH]ncc23)nc(C(F)(F)F)n1 [Example 21, N-(3-(6-Amino-2-(Trifluoromethyl)Pyrimidin-4-yl)Pyridin-2-yl)-1H-Indazol-4-Amine]
17 | – | COc1ncc(Nc2ncc(C(O)C(F)(F)F)cc2-c2nc(C)nc(N)n2)cc1F (stereo not shown) [Example 314, 1-(5-(4-Amino-6-Methyl-1,3,5-Triazin-2-yl)-6-(5-Fluoro-6-Methoxypyridin-3-Ylamino)Pyridin-3-yl)-2,2,2-Trifluoroethanol]
396 | – | COc1ccc(Nc2ccccc2-c2nc(C)nc(N)n2)cn1 [Example 239, 4-(2-(6-Methoxypyridin-3-Ylamino)Phenyl)-6-Methyl-1,3,5-Triazin-2-Amine]
868 | – | COc1ccc(Nc2cnccc2-c2nc(C)nc(N)n2)cn1 [Example 115, 4-(3-(6-methoxypyridin-3-ylamino)pyridin-4-yl)-6-methyl-1,3,5-triazin-2-amine]
4 | – | COc1ncc(Nc2ncc(C(C)(C)O)cc2-c2nc(C)nc(N)n2)cc1F [Example 273, 2-(5-(4-Amino-6-Methyl-1,3,5-Triazin-2-yl)-6-(5-Fluoro-6-Methoxypyridin-3-Ylamino)Pyridin-3-yl)Propan-2-ol]
7 | – | Cc1nc(N)nc(-c2cc(CN3CCOCC3)cnc2Nc2cnc(Cl)c(NS(=O)(=O)N(C)C)c2)n1 [Example 333, N′-(5-((3-(4-Amino-6-Methyl-1,3,5-Triazin-2-yl)-5-(4-Morpholinylmethyl)-2-Pyridinyl)Amino)-2-Chloro-3-Pyridinyl)-N,N-Dimethylsulfamide]
18 | – | COc1ccc(Nc2ncncc2-c2nc(C)nc(N)n2)cn1 [Example 117, 4-(4-(6-methoxypyridin-3-ylamino)pyrimidin-5-yl)-6-methyl-1,3,5-triazin-2-amine]
8 | – | COc1ncc(Nc2ncc(C(C)(C)CO)cc2-c2nc(C)nc(N)n2)cc1F [Example 311, 2-(5-(4-amino-6-methyl-1,3,5-triazin-2-yl)-6-(5-fluoro-6-methoxypyridin-3-ylamino)pyridin-3-yl)-2-methylpropan-1-ol]
4 | – | Cc1nc(N)nc(-c2cc(CN3CCOCC3)cnc2Nc2cnc(Cl)c(NS(C)(=O)=O)c2)n1 [Example 332, N-(5-(3-(4-Amino-6-Methyl-1,3,5-Triazin-2-yl)-5-(Morpholinomethyl)Pyridin-2-Ylamino)-2-Chloropyridin-3-yl)Methanesulfonamide]
– | 72 | COc1ccc(Nc2ncc(CNc3cccnc3)cc2-c2nc(C)nc3[nH]cnc23)cn1 [Example 79, N-(6-methoxypyridin-3-yl)-3-(2-methyl-9H-purin-6-yl)-5-((pyridin-3-ylamino)methyl)pyridin-2-amine]
– | 159 | CC(=O)Nc1ccc(Nc2ncc(Cc3ccc(S(C)(=O)=O)cc3)cc2-c2nc(C)nc3[nH]cnc23)cn1 [Example 105, N-(5-(3-(2-methyl-9H-purin-6-yl)-5-(4-(methylsulfonyl)benzyl)pyridin-2-ylamino)pyridin-2-yl)acetamide]
59 | – | COc1ccc(Nc2nccnc2-c2cc(N)nc(C)n2)cn1 [Example 116, 6-(3-(6-methoxypyridin-3-ylamino)pyrazin-2-yl)-2-methylpyrimidin-4-amine]

Reference: patent US8772480B2, “Inhibitors of PI3 kinase and/or mTOR” (priority 2009, dated 2014)
